Experimental data taken from patent publication US11932604B1, “9-(2-hydroxyphenyl)-10-[3-(dimethylamino)propyl]- 3,4,6,7,9,10-hexahydroacridine-1,8(2H,5H)-dione as an antimicrobial compound” (KING FAISAL UNIVERSITY, priority 2023, dated 2024).

Columns and labels:
Conditions in all cases: after 10, 20, 40 and 60 minutes at all dilutions 1:100 to 1:800
[1] = system: St. Aereus; test: Antimicrobial activity by agar dilution, St. Aereus; type: cell-based, Staphylococcus aureus
Experimental: (§1) The antimicrobial properties of the synthesized compound 9-(2-hydroxyphenyl)-10-[3-(dimethylamino)propyl]-3,4,6,7,9,10-hexahydroacridine-1,8(2H,5H)-dione were studied by the method of agar dilution. Test solutions of each compound were prepared in a concentration of 1% using dimethylformamide as a solvent. Then they were diluted in a physiological solution to obtain the final experimental dilutions 1:100, 1:200, 1:400, and 1:800. The effect of these substances were compared with furacillin in a controllable study. The testing microbes used were gram positive bacteria St. Aereus, gram negative bacteria E. Coli and Ps. Aeruginosa, and Candida albicans fungi. The experiments used for this survey were meat-pentonlu agar (EPA) for cultivation of bacteria and Saburo environment for fungi. Each experiment used 1 ml of test solution on each plate 500 min. Add 2 drops of emulsified with microbes feel. All experimental samples were taken from the agar after 10, 20, 40, 60 minutes in the environment on the basis of Patrk planted. Bacteria were cultivated at a temperature of 37° C. for 1 day and the mushroom was kept in a thermostat for […] at a temperature of 28° C. Then the results were checked.

[2] = system: E. Coli; test: Antimicrobial activity by agar dilution, E. Coli; type: cell-based, Escherichia coli
Experimental: as §1

[3] = system: Ps. Aeruginosa; test: Antimicrobial activity by agar dilution, Ps. Aeruginosa; type: cell-based, Pseudomonas aeruginosa
Experimental: as §1

[4] = system: Candida albicans; test: Antimicrobial activity by agar dilution, Candida albicans; type: cell-based
Experimental: as §1

CN(C)CCCN1C2=C(C(=O)CCC2)C(c2ccccc2O)C2=C1CCCC2=O [9-(2-hydroxyphenyl)-10-[3-(dimethylamino)propyl]-3,4,6,7,9,10-hexahydroacridine-1,8(2H,5H)-dione]
highest inhibition activity: inhibition activity, St. Aereus [1] | inhibition activity, E. Coli [2] | inhibition activity, Ps. Aeruginosa [3] | inhibition activity, Candida albicans [4]
